Data: publication PMC11945486, “TAS1R2/TAS1R3 Single-Nucleotide Polymorphisms Affect Sweet Taste Receptor Activation by Sweeteners: The SWEET Project” (Nutrients, 2025)
One block for each molecule: values may come before it. No end group written: not given here.

Target: T1, human TAS1R2-R317P/TAS1R3-WT (Homo sapiens, UniProt Q7RTX0+Q8TE23, R317P)
T1 construct: expressed in transfected cells; host or cells: HEK293T-Gα16gust44
T1 sequence (Q8TE23 20-839 R317P): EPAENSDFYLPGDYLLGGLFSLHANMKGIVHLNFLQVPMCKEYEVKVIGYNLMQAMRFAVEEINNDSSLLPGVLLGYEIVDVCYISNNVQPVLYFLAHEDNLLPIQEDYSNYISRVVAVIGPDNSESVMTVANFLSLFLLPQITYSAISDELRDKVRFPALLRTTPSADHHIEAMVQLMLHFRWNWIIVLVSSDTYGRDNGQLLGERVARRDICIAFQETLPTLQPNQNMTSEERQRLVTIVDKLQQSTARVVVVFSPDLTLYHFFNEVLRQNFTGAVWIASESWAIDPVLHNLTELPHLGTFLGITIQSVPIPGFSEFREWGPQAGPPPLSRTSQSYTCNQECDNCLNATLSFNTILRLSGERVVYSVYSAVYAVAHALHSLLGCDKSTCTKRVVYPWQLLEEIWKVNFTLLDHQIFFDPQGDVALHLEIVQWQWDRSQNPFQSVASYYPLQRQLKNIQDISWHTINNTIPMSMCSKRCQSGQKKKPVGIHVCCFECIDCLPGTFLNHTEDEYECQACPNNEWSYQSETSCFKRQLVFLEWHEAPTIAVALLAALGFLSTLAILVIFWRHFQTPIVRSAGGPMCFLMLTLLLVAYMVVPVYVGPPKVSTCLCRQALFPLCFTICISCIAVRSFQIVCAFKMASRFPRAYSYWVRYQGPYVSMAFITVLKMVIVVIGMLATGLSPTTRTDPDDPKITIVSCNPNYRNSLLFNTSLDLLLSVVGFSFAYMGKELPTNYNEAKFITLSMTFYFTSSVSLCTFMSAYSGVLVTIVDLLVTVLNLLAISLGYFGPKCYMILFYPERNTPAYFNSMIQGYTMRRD
T1 sequence (Q7RTX0 21-852): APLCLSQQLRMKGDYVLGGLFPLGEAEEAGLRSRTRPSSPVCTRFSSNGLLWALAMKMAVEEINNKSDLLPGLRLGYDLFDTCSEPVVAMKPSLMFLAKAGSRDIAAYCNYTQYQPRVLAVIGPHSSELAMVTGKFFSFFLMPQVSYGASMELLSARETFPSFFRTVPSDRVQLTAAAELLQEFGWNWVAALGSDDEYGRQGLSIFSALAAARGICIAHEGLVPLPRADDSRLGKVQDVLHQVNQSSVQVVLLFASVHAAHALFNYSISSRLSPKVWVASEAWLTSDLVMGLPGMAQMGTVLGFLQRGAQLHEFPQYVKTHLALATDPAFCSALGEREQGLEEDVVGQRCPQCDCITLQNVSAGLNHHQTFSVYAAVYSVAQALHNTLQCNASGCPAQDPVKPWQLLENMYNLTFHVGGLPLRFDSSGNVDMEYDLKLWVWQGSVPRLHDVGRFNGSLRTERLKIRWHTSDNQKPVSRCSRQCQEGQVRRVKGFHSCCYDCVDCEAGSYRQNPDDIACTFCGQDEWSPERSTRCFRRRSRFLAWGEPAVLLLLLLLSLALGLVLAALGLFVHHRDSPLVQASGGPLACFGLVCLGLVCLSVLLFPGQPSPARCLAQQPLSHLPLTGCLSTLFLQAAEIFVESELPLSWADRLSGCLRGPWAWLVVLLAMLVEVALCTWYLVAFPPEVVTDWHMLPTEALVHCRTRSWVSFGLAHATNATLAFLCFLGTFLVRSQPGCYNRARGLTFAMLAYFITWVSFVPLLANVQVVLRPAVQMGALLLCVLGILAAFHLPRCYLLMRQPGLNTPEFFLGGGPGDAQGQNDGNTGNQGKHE
Assay: Calcium mobilisation assay, TAS1R2 variant R317P with TAS1R3-WT
Format: cell-based
Conditions: for Max ΔF/F0: maximal signal amplitude
From the text: The coding sequences for TAS1R2 and TAS1R3 were commercially synthesised, and the human codon was optimised for expression in human cells. The coding sequences of human TAS1R2 and TAS1R3 were subcloned and inserted into the mammalian expression vectors pcDNA6/myc-HisA and pcDNA4/myc-HisA (Invitrogen; Thermo Fisher Scientific; Illkirch, France) between the EcoRI and NotI restriction sites, generating the plasmids pcDNA6-TAS1R2 and pcDNA4-TAS1R3, respectively. To increase protein expression in mammalian cells, an upstream start codon was used, which was a sequence called MAX, corresponding to the QBI SP163 element also described in pcDNA4-HisMax (Invitrogen; Thermo Fisher Scientific; Illkirch, France). To measure the expression level of the receptor by immunohistochemistry, we used the FLAG sequence ([…]) in the C-terminal position, which encodes the FLAG tag epitope. SNP variants of TAS1R2 and TAS1R3 were constructed based on […], respectively, using site-directed mutagenesis (Genewiz; Leipzig, Germany).
The HEK293T cells were kindly provided by Jay P. Slack (Givaudan Flavors Corporation; Cincinnati, OH, USA). HEK293T cells stably transfected with Gα16gust44 [43, 67] were seeded in poly-D-lysine-coated clear-bottom black 96-well plates (0.35 × 10^5 cells/well) in high-glucose DMEM supplemented with 2 mM GlutaMAX, 10% dialysed foetal bovine serum with penicillin/streptomycin and G418 (400 μg/mL) at 37 °C and 6.3% CO2 in a humidified atmosphere as previously reported. […] As a negative control, HEK293T cells were mock-transfected with the empty expression vector. After a further 24 h of incubation, the HEK293T cells were washed with C1 buffer (130 mM NaCl, 5 mM KCl, 10 mM HEPES pH 7.4 and 2 mM CaCl2). The 96-well plates containing the cells were then stimulated with sweet-tasting compounds. […] Different concentration ranges were tested depending on the sweet compound injected. The Ca^2+ changes were expressed as fractional changes in fluorescent light intensity: ΔF/F = (F − F0)/F0, where F was the fluorescent light intensity at each point, and F0 was the value of emitted fluorescent light prior to stimulus application. To calculate dose–response relationships, the changes in fluorescence upon stimulus application were averaged, mock-subtracted and baseline-corrected. The dose–response data obtained were adjusted using a 4-parameter logistic equation. The half-maximal effective concentrations (EC50 values) and maximal signal amplitudes were calculated using SigmaPlot software (version 15.0) (Systat Software; San Jose, CA, USA).
For in vitro calcium mobilisation assay performed on hTAS1R2-SNPs, hTAS1R3-SNPs and mTAS1R3-I60T, 6 to 7 concentrations were tested for each sweet compound, plus buffer alone. All concentration–receptor combinations were measured in duplicate, and each experiment was repeated at least 4 times (8 wells/concentration). Results were expressed for each concentration as ΔF/F mean ± SEM and represented as dose–response curves.

- EC50: 685 ± 41 µM
- R1 = Variant EC50/WT EC50: 1.0
- Max ΔF/F0: 0.42 ± 0.01
Molecule: CC1=CC(=O)NS(=O)(=O)O1 [Acesulfame K, acesulfame K]

- EC50: 171 ± 26.2 µM
- R1 = Variant EC50/WT EC50: 2.2
- Max ΔF/F0: 0.58 ± 0.04
Molecule: COc1ccc(CCC(=O)c2c(O)cc(O[C@@H]3O[C@H](CO)[C@@H](O)[C@H](O)[C@H]3O[C@@H]3O[C@@H](C)[C@H](O)[C@@H](O)[C@H]3O)cc2O)cc1O [NHDC, neohesperidin dihydrochalcone]

- EC50: 0.86 ± 0.16 µM
- R1 = Variant EC50/WT EC50: 1.0
- Max ΔF/F0: 0.63 ± 0.04
Molecule: COC(=O)[C@H](Cc1ccccc1)NC(=O)[C@H](CC(=O)O)NCCC(C)(C)C [Neotame]

- EC50: 35.2 ± 2.2 µM
- R1 = Variant EC50/WT EC50: 2.0
- Max ΔF/F0: 1.16 ± 0.03
Molecule: C=C(C)[C@@H]1CC=C(/C=N/O)CC1 [Perillartine, perillartine]

- EC50: 26.9 ± 0.5 µM
- R1 = Variant EC50/WT EC50: 1.6
- Max ΔF/F0: 1.19 ± 0.01
Molecule: C=C1C[C@@]23CC[C@H]4[C@@](C)(CCC[C@@]4(C)C(=O)O[C@@H]4O[C@H](CO)[C@@H](O)[C@H](O[C@@H]5O[C@H](CO)[C@@H](O)[C@H](O)[C@H]5O)[C@H]4O[C@@H]4O[C@H](CO)[C@@H](O)[C@H](O)[C@H]4O)[C@@H]2CC[C@]1(O[C@@H]1O[C@H](CO)[C@@H](O)[C@H](O[C@@H]2O[C@H](CO)[C@@H](O)[C@H](O)[C@H]2O)[C@H]1O[C@@H]1O[C@H](CO)[C@@H](O)[C@H](O)[C@H]1O)C3 [Rebaudioside M, rebaudioside M]

- R1 = Variant EC50/WT EC50: 2.5
- Max ΔF/F0: 0.91 ± 0.02
Molecule: brazzein (QDKCKKVYENYPVSKCQLANQCNYDCKLDKHARSGECFYDEKRNLQCICDYCEY; ends and bridges not checked; cysteine pairing not given here; UniProt P56552 1-54, looked up) [sweet-tasting protein obtained by recombinant production using the yeast Pichia pastoris]

The remaining lines, values behind:

Molecule: O=S(=O)(O)NC1CCCCC1 [Cyclamate, cyclamate]
- EC50: 2860 ± 62 µM

Molecule: C[C@H](CC[C@@H](O[C@@H]1O[C@H](CO[C@@H]2O[C@H](CO)[C@@H](O)[C@H](O)[C@H]2O)[C@@H](O)[C@H](O)[C@H]1O[C@@H]1O[C@H](CO)[C@@H](O)[C@H](O)[C@H]1O)C(C)(C)O)[C@H]1CC[C@@]2(C)[C@@H]3CC=C4[C@@H](CC[C@H](O[C@@H]5O[C@H](CO[C@@H]6O[C@H](CO)[C@@H](O)[C@H](O)[C@H]6O)[C@@H](O)[C@H](O)[C@H]5O)C4(C)C)[C@]3(C)[C@H](O)C[C@]12C [Mogroside V, mogroside V]
- EC50: 27.9 ± 2.5 µM
- R1 = Variant EC50/WT EC50: 1.6
- Max ΔF/F0: 1.51 ± 0.05

Molecule: OC[C@H]1O[C@H](O[C@]2(CCl)O[C@H](CCl)[C@@H](O)[C@@H]2O)[C@H](O)[C@@H](O)[C@H]1Cl [Sucralose]
- EC50: 98 ± 19 µM
- R1 = Variant EC50/WT EC50: 1.1
- Max ΔF/F0: 0.76 ± 0.06

Molecule: thaumatin
- R1 = Variant EC50/WT EC50: 2.5
- Max ΔF/F0: 0.42 ± 0.01

B1: thaumatin (protein)
chain: ATFEIVNRCSYTVWAAASKGDAALDAGGRQLNSGESWTINVEPGTKGGKIWARTDCYFDDSGSGICKTGDCGGLLRCKRFGRPPTTLAEFSLNQYGKDYIDISNIKGFNVPMDFSPTTRGCRGVRCAADIVGQCPAKLKAPGGGCNDACTVFQTSEYCCTTGKCGPTEYSRFFKRLCPDAFSYVLDKPTTVTCPGSSNYRVTFCPTA
modifications: Eight disulfides
notes: sweet-tasting plant protein, E957
- EC50: 18.9 ± 0.7 µM
